This passage reports MIC results from ChEMBL document CHEMBL3994568 (2016).

The MIC is the lowest concentration that inhibits growth of the organism. Read a low MIC as a more susceptible organism.

Converted amounts (≈) assume the structure as drawn.

Common to all, as to type: functional
Assay [1] can be described thus: Antibacterial activity against Eberthella typhosa ATCC 14028 after 24 hrs by two-fold microbroth dilution method. The settings on record: ATCC 14028, 24 h. A general note: In broth dilution the organism is exposed to a series of concentrations in liquid medium.
The next assay deals with Escherichia coli. Put plainly: Antibacterial activity against Escherichia coli JM109 after 24 hrs by two-fold microbroth dilution method. The note with it: JM109, 24 h.
Assay [2] has as its system Staphylococcus aureus. Put plainly: Antibacterial activity against Staphylococcus aureus ATCC 25923 after 24 hrs by two-fold microbroth dilution method. The note with it: ATCC 25923, 24 h.
A further assay relates to Bacillus. As to the kind of experiment: Antibacterial activity against Bacillus proteus ATCC 13315 after 24 hrs by two-fold microbroth dilution method. The note with it: ATCC 13315, 24 h.
Assay [3] has as its system Staphylococcus aureus. Put plainly: Antibacterial activity against methicillin-resistant Staphylococcus aureus N315 after 24 hrs by two-fold microbroth dilution method. The note with it: N315, 24 h.
In another assay the test system is Bacillus spizizenii. Put plainly: Antibacterial activity against Bacillus subtilis ATCC 6633 after 24 hrs by two-fold microbroth dilution method. The note with it: ATCC 6633, 24 h.
Another assay relates to Pseudomonas aeruginosa. As to the kind of experiment: Antibacterial activity against Pseudomonas aeruginosa ATCC 27853 after 24 hrs by two-fold microbroth dilution method. The note with it: ATCC 27853, 24 h.
The test system of a further assay is Micrococcus luteus. Put plainly: Antibacterial activity against Micrococcus luteus ATCC 4698 after 24 hrs by two-fold microbroth dilution method. The note with it: NCTC 2665, 24 h.
For another assay, the system named is Candida albicans. As to the kind of experiment: Antifungal activity against Candida albicans ATCC 10231 after 24 hrs by two-fold microbroth dilution method. The settings on record: ATCC 10231, 24 h.
The subject of the next assay is Cyberlindnera jadinii. As to the kind of experiment: Antifungal activity against Candida utilis ATCC 9950 after 24 hrs by two-fold microbroth dilution method. The settings on record: Williopsis jadinii, ATCC 9950, 24 h.
The subject of another assay is Saccharomyces cerevisiae. Put plainly: Antifungal activity against Saccharomyces cerevisiae ATCC 9763 after 24 hrs by two-fold microbroth dilution method. The settings on record: ATCC 9763, 24 h.
The test system of a further assay is Pichia norvegensis. Put plainly: Antifungal activity against Candida mycoderma ATCC 9888 after 24 hrs by two-fold microbroth dilution method. The settings on record: ATCC 9888, 24 h.
The subject of another assay is Aspergillus flavus. Put plainly: Antifungal activity against Aspergillus flavus ATCC 204304 after 24 hrs by two-fold microbroth dilution method. The settings on record: ATCC 204304, 24 h.

For the molecule `CCn1cc(C(=O)O)c(=O)c2cc(F)c(N3CCNCC3)cc21` [NORFLOXACIN], the MIC in [1] came out at 4 µg/mL (≈ 12.5 µM); against Escherichia coli, 16 µg/mL (≈ 50.1 µM); with Staphylococcus aureus [2] it was 2 µg/mL (≈ 6.26 µM); against Bacillus, 4 µg/mL (≈ 12.5 µM); against Staphylococcus aureus [3] it was 8 µg/mL (≈ 25.1 µM); with Bacillus spizizenii, 1 µg/mL (≈ 3.13 µM). Further, the MIC against Pseudomonas aeruginosa and with Micrococcus luteus was 2 µg/mL (≈ 6.26 µM) each time.

With `CCCn1c2ccc(C(=O)CCl)cc2c2cc(C(=O)CCl)ccc21`, the MIC in assay [1] was 256 µg/mL (≈ 707 µM); with Escherichia coli it was 256 µg/mL (≈ 707 µM); in the assay on Staphylococcus aureus [2] it was 512 µg/mL (≈ 1410 µM); in the assay with Bacillus it was 128 µg/mL (≈ 353 µM); in the assay with Candida albicans, 256 µg/mL (≈ 707 µM); against Staphylococcus aureus [3] it was 512 µg/mL (≈ 1410 µM). Moreover, the minimal inhibitory concentration (MIC) against Bacillus spizizenii was 512 µg/mL (≈ 1410 µM); in the assay on Pseudomonas aeruginosa, 256 µg/mL (≈ 707 µM); against Micrococcus luteus, 512 µg/mL (≈ 1410 µM); in the assay on Cyberlindnera jadinii, 256 µg/mL (≈ 707 µM); with Saccharomyces cerevisiae, 256 µg/mL (≈ 707 µM); against Pichia norvegensis, 512 µg/mL (≈ 1410 µM). The same molecule yielded an MIC in the assay with Aspergillus flavus of 512 µg/mL (≈ 1410 µM).

In the case of `O=C(N[C@H](CO)[C@H](O)c1ccc([N+](=O)[O-])cc1)C(Cl)Cl` [CHLORAMPHENICOL], the MIC was 32 µg/mL (≈ 99 µM) in [1]; 8 µg/mL (≈ 24.8 µM) in the assay on Staphylococcus aureus [2]; 32 µg/mL (≈ 99 µM) in the assay with Bacillus; 64 µg/mL (≈ 198 µM) against Staphylococcus aureus [3]; 32 µg/mL (≈ 99 µM) in the assay on Bacillus spizizenii; 64 µg/mL (≈ 198 µM) in the assay on Micrococcus luteus.

In the case of `CCCCn1c2ccc(C(=O)CCl)cc2c2cc(C(=O)CCl)ccc21`, the MIC in [1] came out at 512 µg/mL (≈ 1360 µM); against Escherichia coli, 512 µg/mL (≈ 1360 µM); with Staphylococcus aureus [2], 256 µg/mL (≈ 680 µM); in the assay with Bacillus, 256 µg/mL (≈ 680 µM); against Candida albicans it was 512 µg/mL (≈ 1360 µM); in the assay on Staphylococcus aureus [3] it was 256 µg/mL (≈ 680 µM). Besides, the MIC was determined as 256 µg/mL (≈ 680 µM) in the assay with Bacillus spizizenii; 512 µg/mL (≈ 1360 µM) against Pseudomonas aeruginosa; 256 µg/mL (≈ 680 µM) against Micrococcus luteus; 128 µg/mL (≈ 340 µM) with Cyberlindnera jadinii; 512 µg/mL (≈ 1360 µM) in the assay on Saccharomyces cerevisiae; 128 µg/mL (≈ 340 µM) in the assay with Pichia norvegensis. In the assay on Aspergillus flavus, the minimum inhibitory concentration (MIC) was determined as 256 µg/mL (≈ 680 µM).

On to `CCCCCCCCCCn1c2ccc(-c3csc(N)n3)cc2c2cc(-c3csc(N)n3)ccc21`, for which the MIC in assay [1] is 512 µg/mL (≈ 1020 µM); in the assay with Escherichia coli, 256 µg/mL (≈ 508 µM); in the assay on Staphylococcus aureus [2] it was 128 µg/mL (≈ 254 µM); in the assay with Bacillus, 128 µg/mL (≈ 254 µM); in the assay on Candida albicans, 128 µg/mL (≈ 254 µM); in the assay on Staphylococcus aureus [3], 128 µg/mL (≈ 254 µM). Moreover, the MIC is 512 µg/mL (≈ 1020 µM) against Bacillus spizizenii; 512 µg/mL (≈ 1020 µM) with Pseudomonas aeruginosa; 256 µg/mL (≈ 508 µM) with Micrococcus luteus; 256 µg/mL (≈ 508 µM) in the assay with Cyberlindnera jadinii; 256 µg/mL (≈ 508 µM) in the assay on Saccharomyces cerevisiae; 128 µg/mL (≈ 254 µM) in the assay with Pichia norvegensis. In the assay with Aspergillus flavus, this molecule returned an MIC of 128 µg/mL (≈ 254 µM).

`CCCCCCCCCCCCCCCCCCn1c2ccc(C(=O)CCl)cc2c2cc(C(=O)CCl)ccc21`: the MIC in assay [1] stood at 256 µg/mL (≈ 447 µM); against Escherichia coli, 256 µg/mL (≈ 447 µM); in the assay with Staphylococcus aureus [2], 128 µg/mL (≈ 224 µM); with Bacillus, 512 µg/mL (≈ 894 µM); against Candida albicans, 512 µg/mL (≈ 894 µM); with Staphylococcus aureus [3], 256 µg/mL (≈ 447 µM). For the same molecule, the MIC in the assay on Bacillus spizizenii amounted to 512 µg/mL (≈ 894 µM); in the assay with Pseudomonas aeruginosa it was 256 µg/mL (≈ 447 µM); in the assay with Micrococcus luteus it was 512 µg/mL (≈ 894 µM); with Cyberlindnera jadinii it was 512 µg/mL (≈ 894 µM); against Saccharomyces cerevisiae, 256 µg/mL (≈ 447 µM); against Pichia norvegensis, 512 µg/mL (≈ 894 µM). In the assay on Aspergillus flavus, this molecule returned an MIC of 256 µg/mL (≈ 447 µM).

`OC(Cn1cncn1)(Cn1cncn1)c1ccc(F)cc1F` [FLUCONAZOLE]: the MIC came to 32 µg/mL (≈ 104 µM) with Candida albicans; 8 µg/mL (≈ 26.1 µM) in the assay with Cyberlindnera jadinii; 16 µg/mL (≈ 52.2 µM) in the assay with Saccharomyces cerevisiae; 32 µg/mL (≈ 104 µM) in the assay with Pichia norvegensis; 256 µg/mL (≈ 836 µM) with Aspergillus flavus.

`CCCCn1c2ccc(-c3csc(N)n3)cc2c2cc(-c3csc(N)n3)ccc21`: the MIC stood at 128 µg/mL (≈ 305 µM) in assay [1]; 128 µg/mL (≈ 305 µM) against Escherichia coli; 128 µg/mL (≈ 305 µM) with Staphylococcus aureus [2]; 128 µg/mL (≈ 305 µM) in the assay with Bacillus; 128 µg/mL (≈ 305 µM) against Candida albicans; 256 µg/mL (≈ 610 µM) with Staphylococcus aureus [3]. The MIC with Bacillus spizizenii was 256 µg/mL (≈ 610 µM); in the assay with Pseudomonas aeruginosa, 64 µg/mL (≈ 153 µM); with Micrococcus luteus, 128 µg/mL (≈ 305 µM); in the assay on Cyberlindnera jadinii, 256 µg/mL (≈ 610 µM); in the assay on Saccharomyces cerevisiae, 128 µg/mL (≈ 305 µM); with Pichia norvegensis it was 64 µg/mL (≈ 153 µM). The molecule further gave an MIC in the assay on Aspergillus flavus of 256 µg/mL (≈ 610 µM).

As for `CCCCCCCCCCn1c2ccc(C(=O)CCl)cc2c2cc(C(=O)CCl)ccc21`, the minimal inhibitory concentration (MIC) is 256 µg/mL (≈ 556 µM) in assay [1]; 512 µg/mL (≈ 1110 µM) in the assay with Escherichia coli; 256 µg/mL (≈ 556 µM) against Staphylococcus aureus [2]; 256 µg/mL (≈ 556 µM) in the assay on Bacillus; 256 µg/mL (≈ 556 µM) against Candida albicans; 512 µg/mL (≈ 1110 µM) with Staphylococcus aureus [3]. The MIC in the assay on Bacillus spizizenii was found to be 256 µg/mL (≈ 556 µM); against Pseudomonas aeruginosa, 128 µg/mL (≈ 278 µM); with Micrococcus luteus it was 128 µg/mL (≈ 278 µM); with Cyberlindnera jadinii, 256 µg/mL (≈ 556 µM); in the assay with Saccharomyces cerevisiae, 256 µg/mL (≈ 556 µM); in the assay on Pichia norvegensis it was 256 µg/mL (≈ 556 µM). Besides, in the assay on Aspergillus flavus, the MIC amounted to 512 µg/mL (≈ 1110 µM).
